Data published in patent US9949475B2, “Composition comprising active ingredient, oil and ionic liquid” (priority 2011, dated 2018).
≈ marks a conversion by molar mass, not a printed value. Like-named read-outs stand apart in the source and are kept apart here.

Assay: Solubility of agrochemical active ingredient in oil comprising ionic liquid
Format: physicochemical
Conditions: thermodynamic from solid, 21° C.
From the text: Alternatively, the oil, which comprised the ionic liquid, was saturated with the active ingredient and the soluble fraction of active ingredient was quantified by means of HPLC. In the first line of the tables, in each case the weight ratios of oil to IL are given.

solubility (Cetiol B oil comprising ionic liquid, 21 °C, oil or lipid, Oil/IL 60/40 weight ratio, IL N-butyl-N′-methylimidazolium dimethylphosphate, read-out: Solubility of fluxapyroxad with Cetiol ® B as oil): 43.1 mg/mL | solubility (Cetiol B oil comprising ionic liquid, 21 °C, oil or lipid, Oil/IL 60/40 weight ratio, IL N-ethyl-N′-ethylimidazolium propionate, read-out: Solubility of fluxapyroxad with Cetiol ® B as oil): 50.8 mg/mL | solubility (Cetiol B oil comprising ionic liquid, 21 °C, oil or lipid, Oil/IL 60/40 weight ratio, IL N-ethyl-N′-methylimidazolium acetate, read-out: Solubility of fluxapyroxad with Cetiol ® B as oil): 54.9 mg/mL | solubility (Cetiol B oil comprising ionic liquid, 21 °C, oil or lipid, Oil/IL 60/40 weight ratio, IL N-ethyl-N′-methylimidazolium dibutylphosphate, read-out: Solubility of fluxapyroxad with Cetiol ® B as oil): 46 mg/mL | solubility (Cetiol B oil comprising ionic liquid, 21 °C, oil or lipid, Oil/IL 60/40 weight ratio, IL N-ethyl-N′-methylimidazolium heptanoate, read-out: Solubility of fluxapyroxad with Cetiol ® B as oil): 50 mg/mL | solubility (Cetiol B oil comprising ionic liquid, 21 °C, oil or lipid, Oil/IL 60/40 weight ratio, IL N-ethyl-N′-methylimidazolium octanoate, read-out: Solubility of fluxapyroxad with Cetiol ® B as oil): 49.5 mg/mL | solubility (Cetiol B oil comprising ionic liquid, 21 °C, oil or lipid, Oil/IL 60/40 weight ratio, IL N-propyl-N′-propylimidazolium acetate, read-out: Solubility of fluxapyroxad with Cetiol ® B as oil): 49.6 mg/mL | solubility (Cetiol B oil comprising ionic liquid, 21 °C, oil or lipid, Oil/IL 60/40 weight ratio, IL Tetrabutylammonium [2-(2-methoxyethoxy)ethoxy]acetate, read-out: Solubility of fluxapyroxad with Cetiol ® B as oil): 40.8 mg/mL | solubility (Cetiol B oil comprising ionic liquid, 21 °C, oil or lipid, Oil/IL 80/20 weight ratio, IL Cholinium octanoate, read-out: Solubility of fluxapyroxad with Cetiol ® B as oil): 20.8 mg/mL | solubility (Cetiol B oil comprising ionic liquid, 21 °C, oil or lipid, Oil/IL 80/20 weight ratio, IL N-butyl-N′-methylimidazolium dimethylphosphate, read-out: Solubility of fluxapyroxad with Cetiol ® B as oil): 29 mg/mL | solubility (Cetiol B oil comprising ionic liquid, 21 °C, oil or lipid, Oil/IL 80/20 weight ratio, IL N-ethyl-N′-methylimidazolium dibutylphosphate, read-out: Solubility of fluxapyroxad with Cetiol ® B as oil): 31.1 mg/mL | solubility (Cetiol B oil comprising ionic liquid, 21 °C, oil or lipid, Oil/IL 80/20 weight ratio, IL N-ethyl-N′-methylimidazolium heptanoate, read-out: Solubility of fluxapyroxad with Cetiol ® B as oil): 35.9 mg/mL | solubility (Cetiol B oil comprising ionic liquid, 21 °C, oil or lipid, Oil/IL 80/20 weight ratio, IL N-ethyl-N′-methylimidazolium octanoate, read-out: Solubility of fluxapyroxad with Cetiol ® B as oil): 34.3 mg/mL | solubility (Cetiol B oil comprising ionic liquid, 21 °C, oil or lipid, Oil/IL 80/20 weight ratio, IL N-propyl-N′-propylimidazolium acetate, read-out: Solubility of fluxapyroxad with Cetiol ® B as oil): 35.4 mg/mL | solubility (Cetiol B oil comprising ionic liquid, 21 °C, oil or lipid, Oil/IL 80/20 weight ratio, IL Tetrabutylammonium [2-(2-methoxyethoxy)ethoxy]acetate, read-out: Solubility of fluxapyroxad with Cetiol ® B as oil): 27.5 mg/mL | solubility (Cetiol B oil comprising ionic liquid, 21 °C, oil or lipid, Oil/IL 90/10 weight ratio, IL N-butyl-N′-methylimidazolium acetate, read-out: Solubility of fluxapyroxad with Cetiol ® B as oil): 23.7 mg/mL | solubility (Cetiol B oil comprising ionic liquid, 21 °C, oil or lipid, Oil/IL 90/10 weight ratio, IL N-ethyl-N′-ethylimidazolium propionate, read-out: Solubility of fluxapyroxad with Cetiol ® B as oil): 24.2 mg/mL | solubility (Cetiol B oil comprising ionic liquid, 21 °C, oil or lipid, Oil/IL 90/10 weight ratio, IL N-ethyl-N′-methylimidazolium acetate, read-out: Solubility of fluxapyroxad with Cetiol ® B as oil): 25.6 mg/mL | solubility (Cetiol B oil comprising ionic liquid, 21 °C, oil or lipid, Oil/IL 90/10 weight ratio, IL Tetrabutylammonium [2-(2-methoxyethoxy)ethoxy]acetate, read-out: Solubility of fluxapyroxad with Cetiol ® B as oil): 16 mg/mL | solubility (Cetiol B oil without ionic liquid, 21 °C, oil or lipid, 100 Oil (Cetiol B, no IL), read-out: Solubility of fluxapyroxad with Cetiol ® B as oil): 3 mg/mL (≈ 7.87 mM) | solubility (neat Agnique AMD 12 (N,N-dimethyldodecanamide) oil, 21 °C, oil or lipid, 100 Oil (Agnique AMD 12, no IL), read-out: Solubility of fluxapyroxad with Agnique AMD 12 ® (N,N-dimethyldodecanamide, lauryl N,N-dimethylamide) as oil): 21 mg/mL (≈ 55.1 mM) | solubility (neat N-butyl-N′-methylimidazolium acetate (ionic liquid), organic solvent or mixture, 100 IL (no oil), IL N-butyl-N′-methylimidazolium acetate, read-out: Solubility of fluxapyroxad with Agnique AMD 12 ® (N,N-dimethyldodecanamide, lauryl N,N-dimethylamide) as oil): 1 mg/mL (≈ 2.62 mM) | solubility (neat N-ethyl-N′-ethylimidazolium propionate (ionic liquid), 21 °C, organic solvent or mixture, 100 IL (no oil), IL N-ethyl-N′-ethylimidazolium propionate, read-out: Solubility of fluxapyroxad with Solvesso ® 200 ND as oil): 45.7 mg/mL (≈ 120 mM) | solubility (neat N-ethyl-N′-methylimidazolium acetate (ionic liquid), organic solvent or mixture, 100 IL (no oil), IL N-ethyl-N′-methylimidazolium acetate, read-out: Solubility of fluxapyroxad with Agnique AMD 12 ® (N,N-dimethyldodecanamide, lauryl N,N-dimethylamide) as oil): 1 mg/mL (≈ 2.62 mM) | solubility (neat Solvesso 200 ND (oil), 21 °C, oil or lipid, 100 Oil (Solvesso 200 ND, no IL), read-out: Solubility of fluxapyroxad with Solvesso ® 200 ND as oil): 1.5 mg/mL (≈ 3.93 mM) | solubility (neat cholinium octanoate (ionic liquid), 21 °C, organic solvent or mixture, 100 IL (no oil), IL Cholinium octanoate, read-out: Solubility of fluxapyroxad with Cetiol ® B as oil): 5 mg/mL (≈ 13.1 mM) | solubility (neat ionic liquid (no oil), 21 °C, organic solvent or mixture, 100 IL (no oil), IL N-butyl-N′-methylimidazolium acetate, read-out: Solubility of fluxapyroxad with Cetiol ® B as oil): 42.4 mg/mL (≈ 111 mM) | solubility (neat ionic liquid (no oil), 21 °C, organic solvent or mixture, 100 IL (no oil), IL N-butyl-N′-methylimidazolium dimethylphosphate, read-out: Solubility of fluxapyroxad with Cetiol ® B as oil): 5 mg/mL (≈ 13.1 mM) | solubility (neat ionic liquid (no oil), 21 °C, organic solvent or mixture, 100 IL (no oil), IL N-ethyl-N′-ethylimidazolium propionate, read-out: Solubility of fluxapyroxad with Cetiol ® B as oil): 45.7 mg/mL (≈ 120 mM) | solubility (neat ionic liquid (no oil), 21 °C, organic solvent or mixture, 100 IL (no oil), IL N-ethyl-N′-methylimidazolium acetate, read-out: Solubility of fluxapyroxad with Cetiol ® B as oil): 47.2 mg/mL (≈ 124 mM) | solubility (neat ionic liquid (no oil), 21 °C, organic solvent or mixture, 100 IL (no oil), IL N-ethyl-N′-methylimidazolium dibutylphosphate, read-out: Solubility of fluxapyroxad with Cetiol ® B as oil): 9.5 mg/mL (≈ 24.9 mM) | solubility (neat ionic liquid (no oil), 21 °C, organic solvent or mixture, 100 IL (no oil), IL N-ethyl-N′-methylimidazolium heptanoate, read-out: Solubility of fluxapyroxad with Cetiol ® B as oil): 26.9 mg/mL (≈ 70.5 mM) | solubility (neat ionic liquid (no oil), 21 °C, organic solvent or mixture, 100 IL (no oil), IL N-ethyl-N′-methylimidazolium octanoate, read-out: Solubility of fluxapyroxad with Cetiol ® B as oil): 20.8 mg/mL (≈ 54.5 mM) | solubility (neat ionic liquid (no oil), 21 °C, organic solvent or mixture, 100 IL (no oil), IL N-propyl-N′-propylimidazolium acetate, read-out: Solubility of fluxapyroxad with Cetiol ® B as oil): 36.7 mg/mL (≈ 96.2 mM) | solubility (neat ionic liquid (no oil), 21 °C, organic solvent or mixture, 100 IL (no oil), IL Tetrabutylammonium [2-(2-methoxyethoxy)ethoxy]acetate, read-out: Solubility of fluxapyroxad with Cetiol ® B as oil): 9.5 mg/mL (≈ 24.9 mM) | solubility (neat ionic liquid (no oil), organic solvent or mixture, 100 IL (no oil), IL N-ethyl-N′-methylimidazolium isononanoate, read-out: Solubility of fluxapyroxad with Agnique AMD 12 ® (N,N-dimethyldodecanamide, lauryl N,N-dimethylamide) as oil): 9.5 mg/mL (≈ 24.9 mM) | solubility (oil or lipid, Oil/IL 90/10 weight ratio, IL N-butyl-N′-methylimidazolium acetate, read-out: Solubility of fluxapyroxad with Agnique AMD 12 ® (N,N-dimethyldodecanamide, lauryl N,N-dimethylamide) as oil): 36 mg/mL | solubility (oil/ionic liquid mixture, oil or lipid, Oil/IL 90/10 weight ratio, IL N-ethyl-N′-methylimidazolium isononanoate, read-out: Solubility of fluxapyroxad with Agnique AMD 12 ® (N,N-dimethyldodecanamide, lauryl N,N-dimethylamide) as oil): 32 mg/mL | solubility (organic solvent or mixture, 100 IL (no oil), IL Tetrabutylammonium [2-(2-methoxyethoxy)ethoxy]acetate, read-out: Solubility of fluxapyroxad with Agnique AMD 12 ® (N,N-dimethyldodecanamide, lauryl N,N-dimethylamide) as oil): 9.5 mg/mL (≈ 24.9 mM)
Structure (SMILES): Cn1cc(C(=O)Nc2ccccc2-c2cc(F)c(F)c(F)c2)c(C(F)F)n1 [fluxapyroxad, 3-(difluoromethyl)-1-methyl-N-(3′,4′,5′-trifluorobiphenyl-2-yl)pyrazole-4-carboxamide]
